Laboratory results published in ChEMBL document CHEMBL1147004, “Alkynyl pyrimidines as dual EGFR/ErbB2 kinase inhibitors” (Bioorg Med Chem Lett, 2006).
pIC50: −log10 of the molar value.

Columns and labels:
[1] = biological target: Receptor tyrosine-protein kinase erbB-2 (Homo sapiens, UniProt P04626); experiment: Inhibition of ErbB2
[2] = biological target: Epidermal growth factor receptor (Homo sapiens, UniProt P00533)
BT-474 = experiment: Antiproliferative activity against human BT474 cell line
HN5 = experiment: Antiproliferative activity against human HN5 cell line
HFF = experiment: Antiproliferative activity against human HFF cell line
[3] = Permeability in PAMPA; type: ADME; settings: read-out: permeability

Chain of Receptor tyrosine-protein kinase erbB-2 (P04626 whole entry): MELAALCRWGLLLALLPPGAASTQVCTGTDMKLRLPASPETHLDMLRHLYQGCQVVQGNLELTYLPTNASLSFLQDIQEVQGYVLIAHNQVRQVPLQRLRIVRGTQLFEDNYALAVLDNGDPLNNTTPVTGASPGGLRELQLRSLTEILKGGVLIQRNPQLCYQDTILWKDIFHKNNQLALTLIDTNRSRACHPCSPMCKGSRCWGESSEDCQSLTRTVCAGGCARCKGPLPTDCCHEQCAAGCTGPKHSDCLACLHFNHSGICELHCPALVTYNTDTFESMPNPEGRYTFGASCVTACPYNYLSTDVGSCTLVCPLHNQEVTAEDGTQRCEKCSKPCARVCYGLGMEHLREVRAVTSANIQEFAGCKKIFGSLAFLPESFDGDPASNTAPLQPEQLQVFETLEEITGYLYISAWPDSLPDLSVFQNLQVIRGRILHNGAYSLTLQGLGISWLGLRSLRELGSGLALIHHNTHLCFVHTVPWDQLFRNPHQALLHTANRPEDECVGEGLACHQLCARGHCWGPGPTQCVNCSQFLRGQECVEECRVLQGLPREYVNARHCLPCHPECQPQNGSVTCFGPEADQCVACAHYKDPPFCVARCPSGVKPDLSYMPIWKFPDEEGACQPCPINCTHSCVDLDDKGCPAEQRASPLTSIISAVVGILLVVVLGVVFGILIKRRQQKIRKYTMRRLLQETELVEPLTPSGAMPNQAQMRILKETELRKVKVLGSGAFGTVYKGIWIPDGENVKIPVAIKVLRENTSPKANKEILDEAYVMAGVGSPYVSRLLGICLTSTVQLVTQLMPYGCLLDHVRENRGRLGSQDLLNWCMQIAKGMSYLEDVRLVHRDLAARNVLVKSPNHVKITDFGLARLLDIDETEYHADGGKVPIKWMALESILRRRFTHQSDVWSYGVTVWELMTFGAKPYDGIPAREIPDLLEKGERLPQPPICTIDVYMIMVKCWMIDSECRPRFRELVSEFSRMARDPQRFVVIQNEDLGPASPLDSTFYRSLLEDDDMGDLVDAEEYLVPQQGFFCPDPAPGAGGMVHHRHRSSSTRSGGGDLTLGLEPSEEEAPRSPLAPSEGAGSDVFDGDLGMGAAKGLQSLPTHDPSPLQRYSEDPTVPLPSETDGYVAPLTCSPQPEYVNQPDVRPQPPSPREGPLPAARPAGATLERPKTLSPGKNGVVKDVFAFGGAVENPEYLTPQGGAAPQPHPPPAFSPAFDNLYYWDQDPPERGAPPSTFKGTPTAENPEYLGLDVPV
Chain of Epidermal growth factor receptor (P00533 whole entry): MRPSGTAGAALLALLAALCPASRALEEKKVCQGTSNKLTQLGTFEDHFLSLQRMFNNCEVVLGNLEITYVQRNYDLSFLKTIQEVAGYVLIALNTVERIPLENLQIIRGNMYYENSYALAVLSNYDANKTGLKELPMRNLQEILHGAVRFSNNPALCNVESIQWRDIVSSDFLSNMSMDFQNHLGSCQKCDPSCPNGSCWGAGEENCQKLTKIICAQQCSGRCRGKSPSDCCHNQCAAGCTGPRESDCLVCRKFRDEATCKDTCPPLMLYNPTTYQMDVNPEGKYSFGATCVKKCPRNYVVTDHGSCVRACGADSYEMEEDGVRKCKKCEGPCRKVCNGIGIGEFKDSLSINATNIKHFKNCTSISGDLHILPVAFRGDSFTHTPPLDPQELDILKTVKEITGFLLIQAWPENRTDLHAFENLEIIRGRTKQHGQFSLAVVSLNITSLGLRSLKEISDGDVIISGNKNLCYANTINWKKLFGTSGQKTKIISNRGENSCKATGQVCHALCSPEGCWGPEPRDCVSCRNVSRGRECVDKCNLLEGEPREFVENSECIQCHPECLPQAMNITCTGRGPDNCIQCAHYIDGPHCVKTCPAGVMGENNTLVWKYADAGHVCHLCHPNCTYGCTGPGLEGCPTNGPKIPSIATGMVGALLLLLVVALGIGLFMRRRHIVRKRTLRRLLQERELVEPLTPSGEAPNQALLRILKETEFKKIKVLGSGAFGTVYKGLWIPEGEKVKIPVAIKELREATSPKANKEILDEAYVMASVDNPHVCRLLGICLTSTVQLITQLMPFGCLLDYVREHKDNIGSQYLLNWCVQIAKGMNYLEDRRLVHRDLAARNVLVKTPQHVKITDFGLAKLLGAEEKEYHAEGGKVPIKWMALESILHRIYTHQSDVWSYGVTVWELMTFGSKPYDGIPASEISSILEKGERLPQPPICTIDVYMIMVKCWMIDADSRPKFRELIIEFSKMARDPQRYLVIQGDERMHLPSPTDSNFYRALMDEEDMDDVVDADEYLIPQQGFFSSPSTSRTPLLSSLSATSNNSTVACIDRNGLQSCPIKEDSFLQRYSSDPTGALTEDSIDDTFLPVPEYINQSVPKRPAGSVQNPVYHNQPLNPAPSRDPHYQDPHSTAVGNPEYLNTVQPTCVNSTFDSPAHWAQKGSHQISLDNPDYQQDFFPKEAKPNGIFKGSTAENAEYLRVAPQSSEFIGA

Row | pIC50 [1] | pIC50 [2] | pIC50 (BT-474) | Papp [3] [×10⁻⁶ cm/s] | Structure (SMILES) | pIC50 (HN5) | pIC50 (HFF)
1 | 7.49 | 7.10 |  |  | CNC(=O)c1cccc(C#Cc2cncnc2Nc2ccc(OCc3cccc(F)c3)c(Cl)c2)c1 [GW772405X] |  | 
2 | 7.22 | 7.11 |  |  | Fc1cccc(COc2ccc(Nc3ncncc3C#Cc3ncccn3)cc2Cl)c1 |  | 
3 | 7.36 | 7.38 |  |  | Nc1cccc(C#Cc2cncnc2Nc2ccc(OCc3cccc(F)c3)c(Cl)c2)c1 |  | 
4 | 5.74 | 4.60 |  |  | CC(=O)Nc1ccc(C#Cc2cncnc2Nc2ccc(OCc3cccc(F)c3)c(Cl)c2)cc1 |  | 
5 | 7.44 | 7.52 |  |  | Nc1ccc(C#Cc2cncnc2Nc2ccc(OCc3cccc(F)c3)c(Cl)c2)cc1 [GW659893X] |  | 
6 | 6.11 | 7.10 |  |  | Fc1cccc(COc2ccc(Nc3ncncc3C#Cc3ccccc3)cc2Cl)c1 [GW651576X] |  | 
7 | 7.54 | 7.51 | 5.37 |  | COC(=O)CCCC(=O)Nc1cccc(C#Cc2cncnc2Nc2ccc(OCc3cccc(F)c3)c(Cl)c2)c1 | 5.46 | 4.65
8 | 6.80 | 7.12 |  |  | OCc1nc(C#Cc2cncnc2Nc2ccc(OCc3cccc(F)c3)c(Cl)c2)cs1 |  | 
9 | 7.89 | 7.92 | 4.67 | < 0.3 | CC(=O)Nc1cccc(C#Cc2cncnc2Nc2ccc(OCc3cccc(F)c3)c(Cl)c2)c1 [GW703087X] | 4.86 | < 4.52
10 | 7.49 | 7.30 |  |  | CS(=O)(=O)CCC(=O)Nc1cccc(C#Cc2cncnc2Nc2ccc(OCc3cccc(F)c3)c(Cl)c2)c1 |  | 
11 | 7.89 |  | 5.24 |  | OCc1cccc(C#Cc2cncnc2Nc2ccc(OCc3cccc(F)c3)c(Cl)c2)n1 |  | < 4.52
12 | 7.18 | 7.38 |  |  | Fc1cccc(COc2ccc(Nc3ncncc3C#Cc3cc[nH]n3)cc2Cl)c1 |  | 
13 | 7.26 | 7.77 |  |  | Fc1cccc(COc2ccc(Nc3ncncc3C#Cc3ccccn3)cc2Cl)c1 |  | 
14 | 7.42 | 7.68 |  |  | NCc1cccc(C#Cc2cncnc2Nc2ccc(OCc3cccc(F)c3)c(Cl)c2)n1 |  | 
15 | 7.35 | 6.96 |  |  | CS(=O)(=O)Nc1cccc(C#Cc2cncnc2Nc2ccc(OCc3cccc(F)c3)c(Cl)c2)c1 |  | 
16 | 7.23 | 7.04 |  |  | CC(=O)Nc1cccc(C#Cc2cncnc2Nc2ccc(OCc3cccc(F)c3)c(Cl)c2)n1 [GW794726X] |  | 
17 | 6.85 | 7.13 |  |  | Fc1cccc(COc2ccc(Nc3ncncc3C#Cc3cccnc3)cc2Cl)c1 |  | 
18 | 4.68 | 6.49 |  |  | Fc1cccc(COc2ccc(Nc3ccncn3)cc2Cl)c1 |  | 
19 | 7.92 |  |  |  | Nc1nccc(C#Cc2cncnc2Nc2ccc(OCc3cccc(F)c3)c(Cl)c2)n1 [GW799251X] |  | 
20 | 8.05 | 7.82 | 6.08 |  | CS(=O)(=O)CCNC(=O)NCc1cccc(C#Cc2cncnc2Nc2ccc(OCc3cccc(F)c3)c(Cl)c2)n1 | 6.11 | < 4.52
21 | 7.04 | 7.20 |  |  | Nc1ccccc1C#Cc1cncnc1Nc1ccc(OCc2cccc(F)c2)c(Cl)c1 |  | 
22 | 7.28 | 7.22 |  |  | CC(=O)NCc1cccc(C#Cc2cncnc2Nc2ccc(OCc3cccc(F)c3)c(Cl)c2)c1 [GW807930X] |  | 
23 | 5.42 | 7.07 |  |  | C#Cc1cncnc1Nc1ccc(OCc2cccc(F)c2)c(Cl)c1 |  | 
24 | 7.16 | 7.64 |  |  | CNC(=O)NCc1cccc(C#Cc2cncnc2Nc2ccc(OCc3cccc(F)c3)c(Cl)c2)n1 |  | 
25 | 7.33 | 7.48 | 5.69 |  | OCc1ccc(C#Cc2cncnc2Nc2ccc(OCc3cccc(F)c3)c(Cl)c2)o1 | 6.03 | 4.80
